Entries after “also recorded” stand apart in the source; their conditions may differ.
Legend:
[1] = test system: mitochondrial respiration of VX2 tumor mitochondria; assay: Mitochondrial respiration (oxygen consumption, Clark electrode); assay type: biochemical, rabbit; details: 1.2 mM; basal (succinate) and ADP stimulated rate
Description: The freshly isolated liver or VX2 tumor tissues (15-20 g wet weight) was rinsed in 3 volumes of H-medium (210 mM D-mannitol, 70 mM sucrose, 2 mM Hepes, and 0.05% bovine albumin, pH 7.4) at 4° C. and minced with a razor blade as finely as possible. A 30% (V/V) suspension was made using ice-cold H-medium in a Potter-Elvehjem glass homogenizer (55 ml capacity), and homogenization was achieved by applying 4 complete up and down strokes through the suspension with a rotating (˜400 rpm), serrated, teflon pestle attached to a motor. To remove cell debris and nuclei, the resultant homogenate was diluted to twice the initial volume and centrifuged at 630×g for 8 minutes at 4° C. in a Sorvall RC-2B centrifuge using a GSA rotor. The supernatant was removed and then centrifuged at 6,800 g for 15 min under the same conditions. The resultant supernatant was saved and referred to here as the cytosolic faction. […]
Oxygen consumption rates were measured polarographically using a Clark oxygen electrode inserted into a 2.5 ml chamber equipped with a magnetic stirrer. […] The loss of oxygen was monitored in a 2.1 ml system at 25° C. containing 1 mg mitochondria, 0.5 mM EDTA, 2.0 mM Hepes, 220 mM D-mannitol, 70 mM sucrose, 2.5 mM KPi, 2.6 mM MgCl2, and 0.5 mg/ml bovine albumin, and, where indicated, 7.8 mM succinate (respiratory substrate), and 0.24 mM ADP (ATP synthesis substrate). […]

[2] = Intravenous dose-escalation study in normal Lewis rats; assay type: in vivo, rat; details: for therapeutic dose, intravenous: Lewis rats
Description: In order to determine the therapeutic dose of 3-bromopyruvate for intravenous (N) administration, a dose-escalation study was conducted in normal Lewis rats (non-tumor bearing). Each group of animals (6 rats per group) received incremental doses of 3-bromopyruvate intravenously (2.5 mL of 5, 10, 15, 20, 25 and 50 mM 3-bromopyruvate).

[3] = test system: liver implanted VX2 tumors; assay: Single direct intraarterial bolus injection into liver implanted VX2 tumors, histology; assay type: in vivo, rabbit
Excerpt: The rabbit VX2 tumor was selected for implantation in the liver because of the similarities of its blood supply to that of human hepatomas. Other attributes of this tumor include rapid tumor growth, development of a sizable tumor that can be readily identified by x-ray imaging (fluoroscopy), and a biochemical phenotype characteristic of advanced stage tumors, i.e., high glycolysis and elevated levels of mitochondrial bound hexokinase. In addition, the rabbit is large enough that selective manipulation of catheters in the hepatic artery from the common femoral artery for delivery of agents is possible. Adult New Zealand white rabbits (32 total, Robinson Services, Inc.) weighing 3.5-4.2 kg were used. Studies with these animals were approved by the Johns Hopkins University Animal Care and Use Committee and carried out according to their guidelines. For successful implantation of the VX2 tumor into the liver, it was first grown for 2 weeks on the hind leg of a carrier rabbit. Each carrier rabbit was used to supply tumor cells for implantation into the left lobe of the liver of 2 separate rabbits. All animals, carriers and recipients, were anesthetized with a mixture of acepromazine (2.5 mg/kg) and ketamine hydrochloride (44 mg/kg) administered intramuscularly. Intravenous access was gained via a marginal ear vein and sodium pentothal was given intravenously to maintain anesthesia. The VX2 tumor was then excised from the carrier rabbit and placed in Hanks solution. Chunks of the tumor were minced in the same solution. Then, the abdomens of the recipient rabbits were shaved and prepped with betadine after which a midline subxyphoid incision was made. The anterior surface of the liver was exposed and tumor cells (0.1-0.2 ml) from the minced donor tumor were directly implanted onto the left lobe of the liver using the outer cannula of a 21-gauge angiocatheter. This method allows the growth of a single solitary, well-demarcated tumor in the liver of each recipient rabbit. The abdomen was closed in 2 layers. Proper aseptic technique was rigorously observed during each implantation. After surgery, animals were returned to their cages, kept warm with blankets, and monitored in the animal laboratory under the direct supervision of a physician or a technician until they recovered from anesthesia. […] The tumors were allowed to grow for another 14 days at which time they reached an ellipsoidal shape with dimension of approximately 1.5×1.8×2.5 cm.
The solutions of 3-bromopyruvate (3-BrPA, Sigma Chemical Co., St. Louis, Mo.) were prepared in phosphate-buffered saline (PBS). After adjusting the pH to 7.0 with NaOH the solutions were sterilized via Millipore's Millexâ GV 0.22 mm filter unit and used immediately. Freshly made solutions were used in all studies reported here.
Administration of anesthesia, intravenous access and sodium pentothal anesthesia were carried out as described in Example 12. Transcatheter hepatic artery injection of 3-BrPA was performed under fluoroscopy. The animals were brought to the angiography suite and intubated using a size 3.0 mm endotracheal tube (Mallinkrodt Medical, St. Louis, Mo.) but not ventilated. Surgical cut-down was performed to gain access into the right common femoral artery, after which a 3 French sheath (Cook Inc., Bloomington, Ind.) was placed. A specially manufactured 2 French catheter with a tip in the shape of a hockey-stick (JB1 catheter, Cook Inc., Bloomington, Ind.) was manipulated into the celiac axis after which a celiac arteriogram was performed in order to delineate the blood supply to the liver and confirm the location of the tumor. The tumor could readily be visualized as a region of hypervascular blush located on the left side of the liver near the gastric fundus. The left hepatic artery, which usually provides most of the blood flow to the tumor, was selectively catheterized via the common hepatic artery. […]

[4] = single intraarterial injection, 4 days

Question: Which “inhibition of mitochondrial respiration” value [1] does the source give for O=C(O)C(=O)CBr [3-bromopyruvate] here?
Answer: The value was “completely inhibits”.

Question: And the “organs by histopathologic analysis” value ([2]; 50 mM IV)?
Answer: Its value is “normal”.

Question: What about the “therapeutic dose, intravenous” value ([2]; 2.5 mL IV, observed 3 weeks) of the same compound?
Answer: Its value is 20 mM.

Question: What about the “therapeutic dose, intravenous” value ([2]; IV) of the same compound?
Answer: Its value is 16.8 mg/kg.

Question: And the tolerability ([2]; all doses lower than 20 mM IV)?
Answer: The tolerability was “well-tolerated and caused no deaths”.

Question: What about the “clinical distress (appetite, urination, body weight)” value ([2]; doses lower than 20 mM IV) of the same compound?
Answer: The value was “no evidence of clinical distress”.

Question: And the “major organs at necropsy” value ([2]; doses lower than 20 mM IV)?
Answer: Its value is “without any damage”.

Question: What about the mortality ([2]; highest dose of 50 mM IV) of the same compound?
Answer: The mortality was “all the animals in the group died”.

Question: What about the time to death ([2]; highest dose of 50 mM IV) of the same compound?
Answer: The time to death was ≤ 15 min.

Question: And the “damage to 9 major tissues” value ([3]; 4 days after single intraarterial injection)?
Answer: The value was “In no case was there evidence for damage”.

Question: And the “damage to portal veins, sinusoids, bile ducts and arteriolar complexes” value ([3]; much higher concentrations (5 mM), intraarterial)?
Answer: Its value is “only apparent damage occurring occasionally in the peribiliary arteriolar complexes”.

Question: And the “necrosis (non-viable cells) in tumor sections outside the central core” value ([3]; single IA bolus 25 ml 0.5 mM, 4 days)?
Answer: The value was ~100%.

Question: What about the “total number of viable cells in liver implanted tumors, lowest reached” value ([3]; single injection) of the same compound?
Answer: Its value is 10%.

Question: And the “maximal number of non-viable cells observed in any one experiment” value ([3]; single intraarterial injection)?
Answer: The value was 90%.

Question: And the “total number of non-viable cells in the tumor population” value [3, 4]?
Answer: The value was 84±5%.

Question: What about the “viable cells in the entire tumor population” value [3, 4] of the same compound?
Answer: The value was 16±5%.

Question: And the “viability / damage of surrounding liver tissue” value ([3]; single intraarterial injection, 4 days, listed as 3-BrPA)?
Answer: The value was “no damage; also recorded: remained completely viable”.

Source: patent US20100203110A1, “Therapeutics for Cancer Using 3-Bromopyruvate and Other Selective Inhibitors of ATP Production” (The Johns Hopkins University, priority 2006, published 2010)
